According to US4093626A, “β-Lactam antibiotics” (Beecham Group Limited, priority 1976, dated 1978):

What was measured:
[1] = biological target: β-lactamase enzyme produced by Staphylococcus aureus Russell (Staphylococcus aureus, UniProt P00807); experiment: Inhibition of the β-lactamase from Staphylococcus aureus Russell (I50); type: biochemical; settings: β-lactamase from Staph. aureus Russell
Protocol: Inhibition of the β-lactamase from Staphylococcus aureus Russell
I50 values were determined using the process described in Belgium Pat. No. 827,926.

[2] = Acute toxicity in mice; type: in vivo
Protocol: The compound (mixture of 2 isomers) from Example 6.2 was tested for acute toxicity in mice as described below.
Mice: CDI, female, 18 - 22 gm. 5 mice per group
The compound was injected in aqueous dimethylformamide (≤15% DMF) at 0.4 ml/20 g for the 2000 mg./Kg. dosage and at 0.2 ml/20 g. for the other dosages.

[3] = tested on: Staph. aureus Russell; experiment: Antibacterial synergy with ampicillin against Staphylococcus aureus Russell (M.I.C. of ampicillin in presence of compound); type: cell-based; settings: inhibitor conc. 20 μg/ml
Excerpt: (§1) Antibacterial activity and antibacterial synergy with ampicillin against Staphylococcus aureus Russell

[4] = tested on: Staph. aureus Russell; experiment: Antibacterial activity (M.I.C.) against Staphylococcus aureus Russell; type: cell-based; settings: compound alone
Excerpt: as §1

Sequence of β-lactamase enzyme produced by Staphylococcus aureus Russell (P00807 25-281): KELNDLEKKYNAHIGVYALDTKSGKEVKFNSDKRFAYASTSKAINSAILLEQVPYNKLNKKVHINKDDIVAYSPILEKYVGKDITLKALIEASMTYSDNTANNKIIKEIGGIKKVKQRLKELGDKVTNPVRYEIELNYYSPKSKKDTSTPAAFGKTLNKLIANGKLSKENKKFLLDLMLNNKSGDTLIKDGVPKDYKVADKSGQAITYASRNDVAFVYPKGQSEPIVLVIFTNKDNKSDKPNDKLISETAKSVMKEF

For `O=C1C[C@@H]2O[C@@H](CSc3ccccc3)CN12` (racemic) [Example 7, (3RS, 5SR)-3-Phenylthiomethyl-4-oxa-1-azabicyclo[3.2.0]heptan-7-one], the IC50 [1] was 10.2 µM.
`O=C1C[C@@H]2O[C@@H](CBr)CN12` (racemic) [Example 2.2, (3RS, 5SR)-3-Bromomethyl-4-oxa-1-azabicyclo[3.2.0]heptan-7-one] showed an IC50 [1] of 14.6 µM.
With `O=C1C[C@@H]2O[C@@H](C[S+]([O-])c3ccc([N+](=O)[O-])cc3)CN12` (single isomer, unassigned) [Example 20 (isomer I), (3RS, 5SR)-3-p-Nitrophenylsulphinylmethyl-4-oxa-1-azabicyclo[3.2.0] heptan-7-one] the IC50 [1] was 2.7 µM.
With `O=C1C[C@@H]2O[C@@H](CS(=O)(=O)c3ccc([N+](=O)[O-])cc3)CN12` (relative stereo) [Example 0-20] the IC50 [1] was 5.44 µM.
Compound `O=C(Nc1ccccc1)OC[C@H]1CN2C(=O)C[C@@H]2O1` (relative stereo) [Example 22, (3RS, 5SR)-3-(N-Phenylcarbamoyloxymethyl)-4-oxa-1-azabicyclo[3.2.0]heptan-7-one] has an IC50 [1] of 9.15 µM.
In the case of “(3RS, 5RS)- and (3RS, 5SR)-3-(2-Bromoethyl)-4-oxa-1-azabicyclo[3.2.0]heptan-7-one [Example 6.2]”, the “Number of mice alive” value ([2]; 250 mg./Kg. subcutaneous, Day 2) is reported as 5/5, the “Number of mice alive” value ([2]; 250 mg./Kg. subcutaneous, Day 3) is reported as 5/5 and the “Number of mice alive” value ([2]; 250 mg./Kg. subcutaneous, Days 0 and 1) is reported as 5/5. The “Number of mice alive” value ([2]; 250 mg./Kg. subcutaneous, Days 4 to 7) was 5/5, the “Number of mice alive” value ([2]; 500 mg./Kg. subcutaneous, Day 2) was 5/5 and the “Number of mice alive” value ([2]; 500 mg./Kg. subcutaneous, Day 3) was 5/5. For the same compound, the “Number of mice alive” value ([2]; 500 mg./Kg. subcutaneous, Days 0 and 1) was 5/5, the “Number of mice alive” value ([2]; 500 mg./Kg. subcutaneous, Days 4 to 7) was 5/5 and the “Number of mice alive” value ([2]; 1000 mg./Kg. subcutaneous, Day 2) was 5/5. The “Number of mice alive” value ([2]; 1000 mg./Kg. subcutaneous, Day 3) was 5/5, the “Number of mice alive” value ([2]; 1000 mg./Kg. subcutaneous, Days 0 and 1) was 5/5 and the “Number of mice alive” value ([2]; 1000 mg./Kg. subcutaneous, Days 4 to 7) was 5/5. For the same compound, the “Number of mice alive” value ([2]; 2000 mg./Kg. subcutaneous, Day 2) was 3/5, the “Number of mice alive” value ([2]; 2000 mg./Kg. subcutaneous, Day 3) was 2/5 and the “Number of mice alive” value ([2]; 2000 mg./Kg. subcutaneous, Days 0 and 1) was 5/5. The “Number of mice alive” value ([2]; 2000 mg./Kg. subcutaneous, Days 4 to 7) was 2/5, the “Survival and weight gain of remaining mice” value ([2]; 2000 mg./Kg. subcutaneous, end of observation period (7 days)) was “the other two remained alive and had gained weight” and the Deaths ([2]; 2000 mg./Kg. subcutaneous, within 3 days) was “three out of the five mice were dead”. For the same compound, the “Survival and weight gain over the observation period” value ([2]; dosages up to 100 mg./Kg. subcutaneous, 7 days) was “all mice remained alive and gained in weight”, the “M.I.C. Ampicillin” value [3] was 0.4 µg/mL and the M.I.C. [4] was 500 µg/mL.
`O=C(OC[C@H]1CN2C(=O)C[C@@H]2O1)c1ccc([N+](=O)[O-])cc1` (racemic) [Example 14, (3RS, 5SR)-3-p-Nitrobenzoyloxymethyl-4-oxa-1-azabicyclo[3.2.0]heptan-7-one] showed an IC50 [1] of 15.1 µM.
Work on `O=C1C[C@@H]2O[C@@H](COc3ccc([N+](=O)[O-])cc3)CN12` (racemic) [Example 15, (3RS, 5SR)-3-p-Nitrophenoxymethyl-4-oxa-1-azabicyclo[3.2.0]heptan-7-one] yielded an IC50 [1] of 16.7 µM.
